According to patent US11191722B2, “Treatment of diabetes mellitus by long-acting formulations of insulins” (SANOFI, priority 2013, dated 2021):

System: patients with type 2 diabetes mellitus
Conditions: in vivo
From the text: Hypoglycemia, occurrence of adverse events particularly treatment-emergent adverse events (TEAEs) and serious adverse events (SAEs), injection site reactions and hypersensitivity reactions.
Safety analyses were descriptive, based on the safety population.

In the case of insulin glargine [HOE901-U300], the “Death on-study during first 6 months” value is reported as 2 (0.5%) n (%) and the Death post-study is reported as 0 n (%).
With insulin glargine [Lantus] the “Death on-study during first 6 months” value was 2 (0.5%) n (%) and the Death post-study was 0 n (%).
